Experimental data as given in patent US7420102B2, “Dwarfism genes and dwarf plants” (Wisconsin Alumni Research Foundation, priority 2002, dated 2008).

Tests used:
69 mutant plants = test: Rescue of mutant phenotype by external application of bioactive GA3, 69 line; assay type: in vivo, Arabidopsis
From the text: (§1) These phenotypes are similar to loss-of-function alleles of GA biosynthetic enzymes. […] Additionally, other GA forms were also substantially lower in the L10 and 69 lines (Table 4). Both mutant phenotypes could be rescued by the external application of bioactive GA3, which is consistent with the notion that the phenotypes were a result of reduced levels of bioactive GAs.

L10 mutant plants = test: Rescue of mutant phenotype by external application of bioactive GA3, L10 line; assay type: in vivo, Arabidopsis
From the text: as §1

C=C1C[C@]23C[C@@]1(O)CC[C@H]2[C@@]12C=C[C@H](O)[C@@](C)(C(=O)O1)[C@H]2[C@@H]3C(=O)O [GA3]
Flowering Time LD (Number of Leaves) (69 mutant plants; GA3-treated 69 plants): 8 Number of Leaves | Height (69 mutant plants; GA3-treated 69 plants): 30 cm | Internode Length (69 mutant plants; GA3-treated 69 plants): 7 mm | Number of Flowering Branches (69 mutant plants; GA3-treated 69 plants): 65 | Rescue of mutant phenotype (69 mutant plants; external application of GA3 to 69 mutant): rescued | Flowering Time LD (Number of Leaves) (L10 mutant plants; GA3-treated L10 plants): 8 Number of Leaves | Height (L10 mutant plants; GA3-treated L10 plants): 30 cm | Internode Length (L10 mutant plants; GA3-treated L10 plants): 7 mm | Number of Flowering Branches (L10 mutant plants; GA3-treated L10 plants): 65 | Rescue of mutant phenotype (L10 mutant plants; external application of GA3 to L10 mutant): rescued
